{"source": "patent US12653858B2", "about": "“Herbal composition, preparation method thereof and method for preventing or treating respiratory disorder by administering the same” (priority 2021, dated 2026)", "key": {"ACE2": {"test_system": "ACE2", "assay": "ACE2 degradation in WI-38 cells (cycloheximide time course, BafA1 lysosome inhibition)", "format": "cell-based, human", "details": "WI-38 cells pretreated with BafA1 10 μM 30 min, then JGF 10 μg/mL 2 h", "description": "Actin was used as the internal control. […] Actin was used as the internal control.\nFor example, it was examined whether JGF-induced ACE2 degradation is dependent on proteasome or lysosomal systems. Initially, the half-life of ACE2 in WI-38 cells was analyzed following treatment with cycloheximide (CHX), which is a ribosome inhibitor that blocks protein synthesis."}, "[1]": {"test_system": "SARS-CoV-2 S-mediated membrane fusion", "assay": "SARS-CoV-2 spike-mediated cell-cell fusion (syncytium formation) assay", "format": "cell-based"}}, "data": [{"smiles": "CO/C1=C\\C(C)=C\\[C@@H](C)[C@@H](O)[C@@H](C)C/C(C)=C/C=C/[C@H](OC)[C@@H]([C@@H](C)[C@@H](O)[C@H](C)[C@@]2(O)C[C@@H](O)[C@H](C)[C@@H](C(C)C)O2)OC1=O", "note": "[BafA1]", "values": [{"measurement": "ACE2 level after JGF treatment with lysosome inhibitor", "setting": "ACE2", "result": "recovered the ACE2 level"}]}, {"smiles": "CN(C)C(=O)COC(=O)Cc1ccc(OC(=O)c2ccc(NC(=N)N)cc2)cc1", "note": "[camostat]", "values": [{"measurement": "Formation of syncytium", "setting": "[1]", "result": "inhibition of syncytium formation"}]}]}
